Tests used:
Xyl43A [1] = target: T1, Xyl43A; test: inhibition of pNPX hydrolysis, Dixon plot; type: biochemical, Cladosporium neopsychrotolerans; conditions: pNPX substrate, McIlvaine buffer pH 6.8, room temperature, 10 min; mode not stated
T1 construct: intracellular enzyme

Xyl43A [2] = tested on: T1, Xyl43A; test: p-nitrophenol release, Michaelis-Menten fit; type: biochemical, Cladosporium neopsychrotolerans; conditions: 35 °C (optimum), optimal pH; 1-10 mM pNPX used, so the table's unit mg/mL may be doubtful
Source text: p-nitrophenol release, Michaelis-Menten fit on Xyl43A

SMILES | Ki (Xyl43A [1]) | Xyl43A / 35 °C (Topt) (Xyl43A [2])
OC1OC[C@@H](O)[C@H](O)[C@H]1O (stereo partly drawn) [D-xylose] | 43.3 mM | 
O=[N+]([O-])c1ccc(O[C@@H]2OC[C@@H](O)[C@H](O)[C@H]2O)cc1 [pNPX] |  | 2.73 ± 0.37 mg/mL

— publication PMC5904165, “Insight into the cold adaptation and hemicellulose utilization of Cladosporium neopsychrotolerans from genome analysis and biochemical characterization” (Scientific Reports, 2018)
